From article PMC7703437, “In Vitro Hepatic Metabolism of Curcumin Diethyl Disuccinate by Liver S9 from Different Animal Species” (Frontiers in Pharmacology, 2020)

Columns and labels:
[1] = In vitro metabolism profiling of CDD in monkey liver S9 (1 mg/ml); assay type: in vitro ADME, monkey (cynomolgus); conditions: liver S9; monkey LS9 1 mg/ml; read-out: t 1/2 (CDD)
Experimental: (§1) The metabolism profiles of CDD were investigated against HLS9, MLS9, DLS9, and RLS9. A stock solution of CDD was prepared at 150 µM in 50% acetonitrile in water before use. The metabolism study was initiated by spiking 735 µl of preincubated LS9 with 15 µl of CDD stock solution, and the mixture was subsequently incubated at 37°C. The final concentrations of CDD and LS9 were 3 μM and 1 mg/ml, respectively. A 50-µl aliquot from the mixture was collected at 0.5, 1, 2, 3, 4, 5, 10, 15, 30, 45, 60, 90, and 120 min and immediately mixed with 100 µl of ice-cold acetonitrile containing 0.45 µM of internal standard DMC to terminate the metabolic reaction. […] The sample at the initial time point (0 min) was prepared as the other samples, except that heat-inactivated HLS9, MLS9, DLS9, and RLS9 (80°C for 20 min; 1 mg/ml protein) were used.
(§2) The UHPLC system consisted of an Agilent series 1290 quaternary pump with an online degasser, autosampler, column oven, and diode array detector. The mobile phase was composed of (A) 0.1% (v/v) formic acid in acetonitrile and (B) 0.1% (v/v) formic acid in water. Each solution was filtered through a nylon filter (pore size, 0.22 µm; MS® Membrane Filters; Membrane Solutions, United States) before use. The mobile phase flow rate was kept at 1.2 ml/min in a gradient mode using the following elution program: 0–3.0 min, initial A-B (40:60, v/v); 4.5–7.0 min, isocratic elution A-B [50:50, (v/v); 8.5–11.0 min, isocratic elution A-B (60:40, v/v); and 12.0–17.0 min, isocratic elution A-B (40:60, v/v)]. CDD, curcumin, and MSCUR in the supernatant were partitioned using a C8 column (4.6 mm × 50 mm, 2.7 µm; HALO, Advanced Materials Technology, United States) with reference to DMC. The detection wavelength was set at 400 nm (λ max(CDD) = 400 nm, λ max(curcumin) = 427 nm, λ max(MSCUR) = 418 nm, and λ max(DMC) = 421 nm). The column was maintained at 35°C throughout the run, and the supernatant injection volume was set at 20 µl.
(§3) The concentrations of CDD, curcumin, and MSCUR in the supernatant were determined from the standard plots, which were prepared by spiking individual working solutions of the compounds to heat-inactivated HLS9, MLS9, DLS9, and RLS9 ([Alcorn et al., 2007]; [Montoro-Garcia et al., 2009]; [Singh et al., 2010]). These working standards were extracted with 100 µl of ice-cold acetonitrile containing 0.45 µM of DMC and then 120 μl of the supernatant was diluted with 40 μl of water prior to the UHPLC analysis. The peak area ratios of CDD, curcumin, and MSCUR to the internal standard were computed against linear concentration ranges of 0.025–4.5 µM CDD, 0.025–4.5 µM curcumin, and 0.0125–0.75 µM MSCUR, respectively, with the coefficient of determination (r^2) values greater than 0.99.
(§4) The percent content of CDD and the metabolites formed upon its incubation with LS9, namely, curcumin and MSCUR, was plotted against incubation time.
(§5) The following equations were adopted to describe the changes in CDD and MSCUR content over time (t): A = A0e^−k1t (2) B= k1A0/k2−k1(e^−k1t−e^−k2t), (3) where A0 is the CDD concentration at time 0, k 1 is the degradation rate constant of CDD, and k 2 is the degradation rate constant of MSCUR. k 1 and k 2 were determined by using Eqs. 2 and 3, respectively, with nonlinear regression analysis using the SOLVER function of Microsoft Excel for Office 365 MSO (16.0.12527.20986) ([Brown, 2001]). The half-life (t 1/2) was calculated using Eq. 4: t1/2=0.693/k (4)
(§6) The in vitro intrinsic clearance (CLint,in vitro) of CDD and MSCUR in LS9 was calculated using Eq. 5: CLint, in vitro= k × [V]incubation(ml)/[P]incubation(mg protein), (5) where [V]incubation is the incubation volume in ml, and [P]incubation is the amount of LS9. […]

[2] = test system: monkey LS9 (MLS9; cynomolgus); test: as above; assay type: in vitro ADME
Experimental: as §1, §2, §3, §4, §5, §6

half-life at 3 µM [1]: 52.2 ± 7.8 s
CLint, in vitro(CDD) ([2]; monkey LS9): 0.81 ± 0.13 ml min^−1 mg protein^−1
k 1 (CDD) ([2]; monkey LS9 1 mg/ml, CDD 3 µM, 37°C): 0.81 ± 0.13 min⁻¹
CLint, in vivo(CDD) ([2]; monkey, scaled from CLint,in vitro with physiologically based scaling factors): 2949.3 ± 458.2 mL/min/kg
CLint, in vivo total ([2]; monkey, sum of CLint,in vivo(CDD) and CLint,in vivo(MSCUR)): 4,704.26 ± 695.64 L h^−1 kg^−1
CLH (predicted hepatic clearance) ([2]; monkey, well-stirred model, QH 44 ml min^−1 kg^−1, fup 0.0594): 2.61 ± 3.87 × 10^–3 L h^−1 kg^−1
SMILES: CCOC(=O)CCC(=O)Oc1ccc(/C=C/C(=O)/C=C(O)/C=C/c2ccc(OC(=O)CCC(=O)OCC)c(OC)c2)cc1OC [CDD, curcumin diethyl disuccinate]
